Assay results reported in patent publication US20250049962A1, “NEAR-INFRARED FLUORESCENT CONTRAST BIOIMAGING AGENTS FOR IMAGING OF SENTINEL LYMPH NODES” (Curadel Surgical Innovations, Inc., priority 2021, published 2025).
Entries after “also recorded” stand apart in the source; their conditions may differ.

Key:
[1] = Lymph flow imaging after intradermal peri-tail injection; assay type: in vivo, CD-1 mice; conditions: until 15 minutes post injection, ICG at 800 nm, FIG. 4
Experimental: The same procedure was used using intradermal peri-tail injections to visual lymph flow until 15 minutes post injection at which point the animal was sacrificed. […] The arrow with the circle indicates the first-tier node.

[2] = Biodistribution and clearance 4 hours after intravenous injection; assay type: in vivo, CD-1 mice; conditions: 4 hours post iv injection
Experimental: (§1) All foot pad injections and intravenous injections were 10 μL of each of these 500 μM concentrations for a total of 5 nmol per injection.
In order to show the biodistribution benefits of ICB, the same procedure was used using intravenous injections. After 4 hours animals were sacrificed, and the target tissue and other major organs including heart, lung, liver, spleen, pancreas, kidneys, duodenum, intestine, and muscle were resected to quantify biodistribution and clearance. A biodistribution analysis of all three dyes at 4 hours post iv injection.

[3] = SLN imaging after footpad injection, NIR fluorescence imaging; assay type: in vivo, CD-1 mice
From the text: Neae Infrared fluorescence imaging can be achieved using a number of commercially available imaging systes. For example, the dual-NIR channel FLARE imaging system has been described in detail. It provides simultaneous illumination with white light (400-650 nm) at 40,000 lx, 660 nm NIR Channel 1 excitation at 4 mW/cm^2 and […] NIR Channel 2 excitation at 10 mW/cm^2. Color and two independent NIR fluorescence emission images (≈700 nm for Channel 1 and ≈800 nm for Channel 2) were acquired simultaneously with custom software at rates up to 15 Hz over a 15 cm diameter field of view. NIR fluorescence from Channel 1 was pseudo-colored in red and NIR fluorescence from Channel 2 was pseudo-colored in lime green prior to merger with the color video image. The imaging system was positioned at a distance of 18 inches from the surgical field.
as §1
Sentinel lymph nodes were observed a near infrared (NIR) imaging system.
The target tissue was exposed and the SLN was imaged for NIR fluorescence using dual channels [Channel 1 (700 nm) and Channel 2 (800 nm)] of a NIR imaging system.

[4] = Solubility measurement; assay type: physicochemical
Experimental: However, the contrast agent is soluble in mixtures of water and ethanol. […] After mixing for an extended period, the solutions were filtered using a 0.45 um spin filter. The solvent of known volumes was then removed by evaporation and solubility was determined by measuring the remaining solids in the pre-measured evaporating flask.

Compound: CC1(C)C(/C=C/C=C/C=C/C=C2\N(CCCCS(=O)(=O)O)c3ccc4ccccc4c3C2(C)C)=[N+](CCCCS(=O)(=O)[O-])c2ccc3ccccc3c21 [ICG, indocyanine green, reference compound]
- LN skipping [1]: significant LN skipping
- signal in the large intestine ([2]; 5 nmol): enhanced signal
- signal in the stomach ([2]; 5 nmol): to lesser extent

Compound: 4-[(2Z)-2-[(2E,4E)-5-[3,3-dimethyl-1-(4-sulfobutyl) indol-1-ium-2-yl]penta-2,4-dienylidene]-3,3-dimethylindol-1-yl]butane-1-sulfonic acid [ICB]
- leakage / flow through from sentinel lymph nodes ([3]; 5 nmol footpad injection, CD-1 mice): considerably less leakage over ICG or SLN700; also recorded: little to no significant flow through
- first-tier/second-tier signal-to-background ratio ([3]; 15 minutes post-injection, 5 nmol footpad injection, CD-1 mice): 5.4±1.6
- brightness of visualization ([3]; compared to SLN700, 700 nm): brighter
- liver (hepatic) clearance observed by the imaging ([3]; footpad injection, CD-1 mice): Visible liver (hepatic) clearance
- route of clearance [2]: completely cleared by the liver
- signal in the kidneys ([2]; 5 nmol): Minimal signal
- signal in the large intestine ([2]; 5 nmol): enhanced signal
- signal in the stomach ([2]; 5 nmol): to lesser extent
- solubility ([4]; D5W): at least 10 mg/mL
- solubility ([4]; water): at least 10 mg/mL
